Data published in ChEMBL document CHEMBL4813927, “Discovery of Venturicidin Congeners and Identification of the Biosynthetic Gene Cluster from Streptomyces sp. NRRL S-4” (J Nat Prod, 2021).
Structures can show the parent of a compound that is named as a salt.

Columns and labels:
MV4-11 = test: Cytotoxicity against human MV4-11 cells assessed as inhibition of cell growth measured after 72 hrs by Celltiter-Glo assay; type: functional, cell-based; conditions: MV4-11, 72 h
K562 = test: Cytotoxicity against human K562 cells assessed as inhibition of cell growth measured after 72 hrs by Celltiter-Glo assay; type: functional, cell-based; conditions: K562, 72 h
[1] = target: T1, Receptor-type tyrosine-protein kinase FLT3 (Homo sapiens, UniProt P36888); test: Inhibition of FLT3 (unknown origin) using MBP as substrate incubated for 40 mins in presence of ATP by ADP-Glo assay
T1 sequence (P36888 whole entry): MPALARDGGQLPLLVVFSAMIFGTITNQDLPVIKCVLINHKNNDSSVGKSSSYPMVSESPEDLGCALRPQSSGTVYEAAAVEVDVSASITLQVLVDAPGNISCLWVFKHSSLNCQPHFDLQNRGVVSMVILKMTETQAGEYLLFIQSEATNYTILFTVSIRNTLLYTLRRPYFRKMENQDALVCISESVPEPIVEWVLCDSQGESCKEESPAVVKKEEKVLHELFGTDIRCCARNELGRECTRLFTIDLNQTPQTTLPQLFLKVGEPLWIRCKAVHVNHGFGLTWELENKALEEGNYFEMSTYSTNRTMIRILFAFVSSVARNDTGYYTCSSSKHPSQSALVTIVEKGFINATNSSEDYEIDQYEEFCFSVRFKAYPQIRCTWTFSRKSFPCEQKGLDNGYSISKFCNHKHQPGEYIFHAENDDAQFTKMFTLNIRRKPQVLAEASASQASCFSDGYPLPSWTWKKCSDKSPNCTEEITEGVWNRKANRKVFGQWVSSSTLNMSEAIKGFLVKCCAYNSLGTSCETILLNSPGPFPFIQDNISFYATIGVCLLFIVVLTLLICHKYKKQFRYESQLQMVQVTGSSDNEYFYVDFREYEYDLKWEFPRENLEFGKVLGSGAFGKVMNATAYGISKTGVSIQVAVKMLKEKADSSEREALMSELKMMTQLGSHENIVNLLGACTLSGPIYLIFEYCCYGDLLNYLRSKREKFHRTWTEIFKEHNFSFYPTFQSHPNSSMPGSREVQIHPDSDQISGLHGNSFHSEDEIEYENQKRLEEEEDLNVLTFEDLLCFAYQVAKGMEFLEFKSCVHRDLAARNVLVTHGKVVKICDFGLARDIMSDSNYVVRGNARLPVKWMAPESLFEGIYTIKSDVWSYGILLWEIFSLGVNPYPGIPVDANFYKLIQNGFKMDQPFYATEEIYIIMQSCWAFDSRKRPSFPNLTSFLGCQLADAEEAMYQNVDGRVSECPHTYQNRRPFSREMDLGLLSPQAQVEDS

Hep 3B2 = test: Cytotoxicity against human Hep3B cells assessed as inhibition of cell growth measured after 72 hrs by Celltiter-Glo assay; type: functional, cell-based
MDA-MB-468 = test: Cytotoxicity against human MDA-MB-468 cells assessed as inhibition of cell growth measured after 72 hrs by Celltiter-Glo assay; type: functional, cell-based; conditions: MDA-MB-468, 72 h
B16 = test: Cytotoxicity against mouse B16 cells assessed as inhibition of cell growth measured after 72 hrs by Celltiter-Glo assay; type: functional, cell-based; conditions: B16, 72 h

In the case of `CCC(=O)[C@@H](C)[C@H](O)[C@H](C)C[C@@H](C)[C@H]1OC(=O)C[C@@]2(O)CC=C(C)[C@H](O2)/C(C)=C/CCC[C@@H](O[C@H]2C[C@@H](OC(N)=O)[C@H](O)[C@@H](C)O2)/C=C/[C@H](C)C[C@H]1C`, the IC50 (MV4-11) is reported as 60 µM.
With `CCC(=O)[C@@H](C)[C@@H](O)[C@H](C)C[C@@H](C)[C@H]1OC(=O)C[C@@]2(OC)CC=C(C)[C@H](O2)/C(C)=C/CCC[C@@H](O[C@H]2C[C@@H](OC(N)=O)[C@H](O)[C@@H](C)O2)/C=C/[C@H](C)C[C@H]1C` the IC50 (MV4-11) was 4.1 µM.
In the case of `CCC(=O)[C@@H](C)[C@@H](O)[C@H](C)C[C@@H](C)[C@H]1OC(=O)C[C@@]2(O)CC=C(C)[C@H](O2)/C(C)=C/CCC[C@@H](O[C@H]2C[C@@H](OC(N)=O)[C@H](O)[C@@H](C)O2)/C=C/[C@H](C)C[C@H]1C`, the IC50 (MV4-11) is reported as 0.09 µM, the IC50 (K562) is reported as 5.8 µM and the IC50 [1] is reported as 64 µM. The IC50 (Hep 3B2) was 15 µM, the IC50 (MDA-MB-468) was 8.3 µM and the IC50 (B16) was 12 µM.
`CCC(=O)[C@@H](C)[C@@H](O)[C@H](C)C[C@@H](C)[C@H]1OC(=O)C[C@@]2(O)CC[C@H](C)[C@H](O2)/C(C)=C/CCC[C@@H](O[C@H]2C[C@@H](OC(N)=O)[C@H](O)[C@@H](C)O2)/C=C/[C@H](C)C[C@H]1C` showed an IC50 (MV4-11) of 0.94 µM.
For `COc1cccc2c1C(=O)c1c(O)c3c(c(O)c1C2=O)C[C@@](O)(C(=O)CO)C[C@@H]3O[C@H]1C[C@H](N)[C@H](O)[C@H](C)O1` [DOXORUBICIN HYDROCHLORIDE], the IC50 (MV4-11) was 0.14 µM.
